Laboratory results published in US7335814B2, “Transgenic cells expressing glucosyltransferase nucleic acids” (The University of York, priority 2000, dated 2008).

Experiments:
Format in all cases: biochemical
recombinant GTase A41 [1] = target: T1, recombinant GTase A41 (Arabidopsis thaliana, UniProt Q5XF20); assay: Specific activity of recombinant GTase producing glucose ester against lignin precursors (HPLC); details: 5 mM UDPG, 0.2 μg GTase, 200 μl, 20° C., 30 min
T1 construct: made in house; host or cells: E. coli
T1 sequence (Q5XF20 7-490): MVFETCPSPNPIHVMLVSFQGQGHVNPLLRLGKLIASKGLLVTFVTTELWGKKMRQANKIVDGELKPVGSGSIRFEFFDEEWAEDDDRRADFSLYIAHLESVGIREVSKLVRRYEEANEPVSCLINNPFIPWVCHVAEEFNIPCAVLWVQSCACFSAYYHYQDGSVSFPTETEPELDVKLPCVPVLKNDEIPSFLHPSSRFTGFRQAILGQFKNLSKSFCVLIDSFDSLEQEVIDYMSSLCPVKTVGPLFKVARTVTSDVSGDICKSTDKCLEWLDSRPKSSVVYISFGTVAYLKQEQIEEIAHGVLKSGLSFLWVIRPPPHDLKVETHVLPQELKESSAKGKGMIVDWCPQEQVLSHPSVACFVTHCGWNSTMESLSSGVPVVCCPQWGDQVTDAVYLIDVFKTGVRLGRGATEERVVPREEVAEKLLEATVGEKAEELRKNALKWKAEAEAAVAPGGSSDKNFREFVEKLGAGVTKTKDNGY

recombinant GTase A062 = target: T2, recombinant GTase A062 (Arabidopsis thaliana, UniProt Q9LR44); assay: as above; details: 0.5 ml of potential substrates, 5 mM UDPG, 0.2 μg GTase, 200 μl, 20° C., 30 min
T2 construct: made in house; host or cells: E. coli
T2 sequence (Q9LR44 1-469): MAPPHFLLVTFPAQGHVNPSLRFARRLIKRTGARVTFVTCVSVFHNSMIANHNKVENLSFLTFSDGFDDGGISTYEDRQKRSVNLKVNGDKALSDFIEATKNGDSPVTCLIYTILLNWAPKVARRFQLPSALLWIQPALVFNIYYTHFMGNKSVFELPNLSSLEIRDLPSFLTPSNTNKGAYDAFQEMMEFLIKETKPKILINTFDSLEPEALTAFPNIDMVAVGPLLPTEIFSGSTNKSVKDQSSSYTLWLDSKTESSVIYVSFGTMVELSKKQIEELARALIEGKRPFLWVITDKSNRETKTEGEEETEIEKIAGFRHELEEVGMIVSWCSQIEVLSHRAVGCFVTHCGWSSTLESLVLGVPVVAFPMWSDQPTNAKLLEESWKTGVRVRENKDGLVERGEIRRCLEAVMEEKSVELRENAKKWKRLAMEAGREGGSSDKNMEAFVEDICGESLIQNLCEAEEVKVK

recombinant GTase A407 = target: T3, recombinant GTase A407 (Arabidopsis thaliana, UniProt O81498); assay: Specific activity of recombinant GTase producing O-glucosides against lignin precursors (HPLC); details: 30° C.; ND = not detected
T3 construct: made in house; host or cells: E. coli
T3 sequence (O81498 1-481): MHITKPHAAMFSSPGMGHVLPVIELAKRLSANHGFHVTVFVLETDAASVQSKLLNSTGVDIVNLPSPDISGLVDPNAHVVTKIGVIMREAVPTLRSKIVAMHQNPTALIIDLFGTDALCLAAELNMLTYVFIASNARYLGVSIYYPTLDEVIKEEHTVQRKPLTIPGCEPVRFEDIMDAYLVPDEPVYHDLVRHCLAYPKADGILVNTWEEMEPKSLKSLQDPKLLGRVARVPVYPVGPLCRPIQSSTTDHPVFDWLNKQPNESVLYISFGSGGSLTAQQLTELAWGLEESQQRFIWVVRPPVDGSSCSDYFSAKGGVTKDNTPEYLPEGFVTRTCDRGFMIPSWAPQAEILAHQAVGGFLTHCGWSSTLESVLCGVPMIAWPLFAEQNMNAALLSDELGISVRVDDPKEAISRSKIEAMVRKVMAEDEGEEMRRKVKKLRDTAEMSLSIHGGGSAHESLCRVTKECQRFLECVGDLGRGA

recombinant GTase A41 [2] = target: T1, recombinant GTase A41; assay: Kinetic studies (Michaelis-Menten) on recombinant GTase producing glucose esters; details: glucose ester formation
recombinant GTase A42 = target: T4, recombinant GTase A42 (Arabidopsis thaliana, UniProt O23401); assay: as above; details: glucose ester formation
T4 construct: made in house; host or cells: E. coli
T4 sequence (O23401 1-479): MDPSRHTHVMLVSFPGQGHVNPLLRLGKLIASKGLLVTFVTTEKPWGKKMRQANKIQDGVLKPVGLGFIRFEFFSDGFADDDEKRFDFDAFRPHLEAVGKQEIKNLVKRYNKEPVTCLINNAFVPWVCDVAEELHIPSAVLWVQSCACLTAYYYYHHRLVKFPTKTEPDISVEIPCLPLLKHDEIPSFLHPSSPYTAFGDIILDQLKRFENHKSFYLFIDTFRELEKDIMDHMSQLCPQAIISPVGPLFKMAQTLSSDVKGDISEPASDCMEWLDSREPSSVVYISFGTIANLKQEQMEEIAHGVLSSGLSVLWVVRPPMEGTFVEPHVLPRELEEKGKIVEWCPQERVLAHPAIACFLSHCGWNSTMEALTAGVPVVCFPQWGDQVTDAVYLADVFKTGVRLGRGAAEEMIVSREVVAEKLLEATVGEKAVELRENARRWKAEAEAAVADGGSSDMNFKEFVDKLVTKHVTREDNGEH

recombinant GTase A119 = target: T5, recombinant GTase A119 (Arabidopsis thaliana, UniProt Q9LVR1); assay: Kinetic studies (Michaelis-Menten) on recombinant GTase producing O-glucosides; details: O-glucoside formation
T5 construct: made in house; host or cells: E. coli
T5 sequence (Q9LVR1 1-481): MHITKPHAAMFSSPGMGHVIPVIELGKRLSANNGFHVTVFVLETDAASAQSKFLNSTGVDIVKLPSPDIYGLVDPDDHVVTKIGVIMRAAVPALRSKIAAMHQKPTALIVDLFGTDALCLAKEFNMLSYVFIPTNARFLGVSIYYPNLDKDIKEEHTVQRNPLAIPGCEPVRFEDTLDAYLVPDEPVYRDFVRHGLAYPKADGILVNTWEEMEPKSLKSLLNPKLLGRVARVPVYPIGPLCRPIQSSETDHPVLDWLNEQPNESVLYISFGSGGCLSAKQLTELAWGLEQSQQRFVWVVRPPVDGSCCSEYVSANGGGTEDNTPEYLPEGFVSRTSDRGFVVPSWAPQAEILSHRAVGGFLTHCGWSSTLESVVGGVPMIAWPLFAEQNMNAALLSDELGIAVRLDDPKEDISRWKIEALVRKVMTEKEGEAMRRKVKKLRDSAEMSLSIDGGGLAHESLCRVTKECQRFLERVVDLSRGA

Row | Compound | Specific activity of A41 (substrate converted to glucose ester) (recombinant GTase A41 [1]) | Specific activity of A062 (substrate converted to glucose ester) (recombinant GTase A062) | Specific activity of A407 (substrate converted to 4-O-glucoside) (recombinant GTase A407) | Vmax (A41) (recombinant GTase A41 [2]) | Vmax (A42) (recombinant GTase A42) | Vmax (A119) (recombinant GTase A119)
1 | COc1cc(/C=C/C(=O)O)ccc1O [Ferulic acid, ferulic acid] | 6.64 nkat/mg | 0.08 nkat/mg | 0.25 nkat/mg | 11.35 nkat/mg | 18.35 nkat/mg | 18.87 nkat/mg
2 | O=C(O)/C=C/c1ccc(O)cc1 [p-coumaric acid] | 13.53 nkat/mg | 2.54 nkat/mg | 0.01 nkat/mg |  |  | 
